US20130030055A1, “COMPOSITIONS AND METHODS FOR TREATING HAIR LOSS, HAIR THINNING, AND HAIR COLOR LOSS” (priority 2010, published 2013)

System: eyelashes
Experiment: Open-label study of bimatoprost 0.03% on eyelid lash line: photographic Global Eyelash Assessment (GEA)
Assay type: in vivo, human
Protocol: To assess the safety, efficacy, and subjective experience of using dermal application of bimatoprost 0.03% for the growth of natural eyelashes and as described herein hair in at least one eyebrow region, a prospective, open-label study of subjects who desired longer, thicker (fuller), and darker natural eyelashes was conducted.
This was a prospective, open-label study of subjects who wanted to grow more prominent eyelashes. […] The protocol was in compliance with the Declaration of Helsinki and in accordance with applicable Institutional Review Board regulations approved Aug. 28, 2005. Study subjects gave informed consent prior to initiation of any study-related procedures.
Subjects were instructed to apply bimatoprost 0.03% to the eyelid lash line once daily for 12 weeks using an applicator (Studio Basics Professional Tools Eye Applicators, Paris Presents Incorporated, Gumee, Ill.) for each upper eyelid each evening and, if necessary, to wipe the areas immediately around the eyelid afterward to remove excess medication. Periodic use of artificial tears was allowed, but only prior to administration of bimatoprost 0.03%.
Photographic Documentation and Analysis. Frontal-(with eyes open) and side-view photographs were taken of the subjects' eyes at each visit; frontal-view images with eyes closed were taken starting at week 1. The photographic assessment planned as a primary a priori endpoint was a dynamic measure assessing change at each visit from baseline photos. The dynamic scale of global change in increased length, thickness, pigmentation, and number of lashes was +0=no change, +½=little change, +1=mild noticeable change, +2=moderate notable change, and +3=major very notable change. A static photographic assessment was calculated. Photographs from subjects who had frontal eyes-closed images available from weeks 1 and 12 were evaluated in a post hoc analysis and scored independently by 2 raters using a validated Global Eyelash Assessment (GEA) scale, designed to objectively evaluate the quality of a subject's eyelashes. One evaluator was a physician and the other was a health outcomes researcher employed by the study sponsor. In this clinician-graded assessment, overall eyelash prominence was rated on a scale from 1 (minimal) to 4 (very marked). The two independently assessed scores for each photograph (1 from each evaluator) were averaged and the change from week 1 was calculated for each patient.
Statistical Analyses. A 2-sided paired t-test was used to evaluate the intraocular pressure change from baseline, and the GEA change from week 1 to week 12 was compared using a Wilcoxon signed-rank test. Analysis of intraocular pressure was performed on a per-eye and per-subject basis. A significance level of 0.05 was used for all statistical tests. Categorical variables were summarized with frequency, count, and percentages.

How did the “Mean GEA score at week 1” value (17 subjects with week-1 GEA scores of 1 or 2) turn out when `CCNC(=O)CCC/C=C\C[C@@H]1[C@@H](/C=C/[C@@H](O)CCc2ccccc2)[C@H](O)C[C@@H]1O` [bimatoprost] was run?
The value was 1.88±0.33.

What about the “Mean increase in GEA score at week 12” value (17 subjects with week-1 GEA scores of 1 or 2, P<0.0001) of the same molecule?
Its value is 1.41±0.44.

And the “Mean change in GEA score from week 1 to week 12” value (all 19 subjects, P<0.0001)?
The value was 1.37±0.44.

What about the “Mean week-1 GEA score” value (all 19 subjects, scale 1 to 4) of the same molecule?
Its value is 2.0±0.47.

What about the “Subjects rated GEA 2 (moderate)” value (week 1 (15/19)) of the same molecule?
The value was 79.0%.

And the “Subjects rated GEA 3 (marked) or higher” value (week 12 (18/19))?
Its value is 94.7%.
